Tests used:
Assay in all cases: relative viability (nuclei count vs DMSO), 5 days (fraction); higher = more cells survive
Carboplatin + AZD7762 = compound: C1CC(C1)(C(=O)O)C(=O)O.[NH2-].[NH2-].[Pt+2] [Carboplatin] + NC(=O)Nc1cc(-c2cccc(F)c2)sc1C(=O)N[C@H]1CCCNC1 [AZD7762] (partner 0.2 µM)
Summary of the method: (§1)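 Lung cancer cell lines were seeded in 1536-well plates and dosed by pin tool the next day, with either a single drug or a fixed anchor-drug dose combined with five library-drug doses (not always all listed) spaced in √10 steps. Five days later, one step fixed the cells and stained their nuclei (final 0.05% Triton X-100, 1% formaldehyde, 1 ug/ml Hoechst), and nuclei were counted on 4× images. Relative viability is the nuclei count in treated wells divided by the count in vehicle wells, and each value is the median of duplicate plates.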

MLN4924 + Olaparib = compound: NS(=O)(=O)OC[C@@H]1C[C@@H](n2ccc3c(N[C@H]4CCc5ccccc54)ncnc32)C[C@@H]1O [MLN4924] + O=C(c1cc(Cc2n[nH]c(=O)c3ccccc23)ccc1F)N1CCN(C(=O)C2CC2)CC1 [Olaparib] (partner 8 µM)
Summary of the method: as §1

Carboplatin + Dasatinib = compound: C1CC(C1)(C(=O)O)C(=O)O.[NH2-].[NH2-].[Pt+2] [Carboplatin] + Cc1nc(Nc2ncc(C(=O)Nc3c(C)cccc3Cl)s2)cc(N2CCN(CCO)CC2)n1 [Dasatinib] (partner 0.075 µM)
Summary of the method: as §1

GSK126 + AZD7762 = compound: CC[C@H](C)N1C=C(C2=C(C=C(C=C21)C3=CN=C(C=C3)N4CCNCC4)C(=O)NCC5=C(C=C(NC5=O)C)C)C [GSK126] + NC(=O)Nc1cc(-c2cccc(F)c2)sc1C(=O)N[C@H]1CCCNC1 [AZD7762] (partner 0.2 µM)
Summary of the method: as §1

Cell Line | relative viability (Carboplatin + AZD7762; first compound 0.08 µM) | relative viability (Carboplatin + AZD7762; first compound 0.253 µM) | relative viability (Carboplatin + AZD7762; first compound 0.8 µM) | relative viability (Carboplatin + AZD7762; first compound 2.53 µM) | relative viability (Carboplatin + AZD7762; first compound 8 µM) | relative viability (MLN4924 + Olaparib; first compound 0.04 µM) | relative viability (MLN4924 + Olaparib; first compound 0.1265 µM) | relative viability (MLN4924 + Olaparib; first compound 0.4 µM) | relative viability (MLN4924 + Olaparib; first compound 1.265 µM) | relative viability (MLN4924 + Olaparib; first compound 4 µM) | relative viability (Carboplatin + Dasatinib; first compound 0.08 µM) | relative viability (Carboplatin + Dasatinib; first compound 0.253 µM) | relative viability (Carboplatin + Dasatinib; first compound 0.8 µM) | relative viability (Carboplatin + Dasatinib; first compound 2.53 µM) | relative viability (Carboplatin + Dasatinib; first compound 8 µM) | relative viability (GSK126 + AZD7762; first compound 0.08 µM) | relative viability (GSK126 + AZD7762; first compound 0.253 µM) | relative viability (GSK126 + AZD7762; first compound 0.8 µM) | relative viability (GSK126 + AZD7762; first compound 2.53 µM) | relative viability (GSK126 + AZD7762; first compound 8 µM)
LC-2-ad | 0.922 | 0.829 | 0.854 | 0.851 | 0.78 | 0.68 | 0.53 | 0.335 | 0.269 | 0.197 | 0.701 | 0.567 | 0.414 | 0.416 | 0.277 | 0.851 | 0.866 | 0.858 | 0.953 | 0.92
NCI-H460 | 0.612 | 0.53 | 0.524 | 0.279 | 0.111 | 0.395 | 0.372 | 0.427 | 0.0925 | 0.0401 | 0.551 | 0.429 | 0.464 | 0.427 | 0.183 | 0.616 | 0.5 | 0.594 | 0.538 | 0.546
NCI-H1915 | 0.64 | 0.706 | 0.679 | 0.647 | 0.39 | 0.314 | 0.22 | 0.221 | 0.142 | 0.129 | 0.288 | 0.304 | 0.315 | 0.305 | 0.255 | 0.762 | 0.739 | 0.663 | 0.755 | 0.676
NCI-H1299 | – | – | – | – | – | 0.912 | 0.667 | 0.416 | 0.201 | 0.172 | – | – | – | – | – | – | – | – | – | –
HOP-62 | 0.793 | 0.665 | 0.669 | 0.608 | 0.497 | 0.205 | 0.303 | 0.0801 | 0.0633 | 0.0555 | 0.711 | 0.711 | 0.645 | 0.728 | 0.575 | 0.67 | 0.757 | 0.819 | 0.528 | 0.363
EPLC-272H | 0.308 | 0.218 | 0.309 | 0.208 | 0.208 | 0.352 | 0.176 | 0.0677 | 0.0995 | 0.105 | 0.455 | 0.342 | 0.326 | 0.365 | 0.399 | 0.272 | 0.296 | 0.209 | 0.262 | 0.112
NCI-H647 | 0.604 | 0.474 | 0.444 | 0.476 | 0.303 | 0.392 | 0.125 | 0.0492 | 0.0302 | 0.0464 | 0.196 | 0.18 | 0.216 | 0.164 | 0.161 | 0.465 | 0.495 | 0.497 | 0.507 | 0.371
NCI-H1792 | 0.924 | 0.669 | 0.606 | 0.457 | 0.352 | 0.452 | 0.37 | 0.384 | 0.33 | 0.104 | 0.831 | 0.776 | 0.816 | 0.692 | 0.62 | 0.68 | 0.712 | 0.537 | 0.58 | 0.567
NCI-H2009 | – | – | – | – | – | 0.449 | 0.382 | 0.143 | 0.146 | 0.0556 | 0.321 | 0.286 | 0.29 | 0.291 | 0.249 | – | – | – | – | –
NCI-H2405 | 0.832 | 0.757 | 0.757 | 0.646 | 0.454 | 0.748 | 0.524 | 0.323 | 0.239 | 0.231 | 0.234 | 0.206 | 0.214 | 0.191 | 0.215 | 0.794 | 0.603 | 0.695 | 0.715 | 0.611
SK-MES-1 | – | – | – | – | – | 0.653 | 0.545 | 0.305 | 0.158 | 0.234 | 0.574 | 0.354 | 0.344 | 0.379 | 0.363 | – | – | – | – | –
NCI-H1563 | – | – | – | – | – | – | – | – | – | – | 0.496 | 0.464 | 0.439 | 0.399 | 0.445 | – | – | – | – | –
NCI-H2170 | 0.944 | 0.934 | 0.995 | 0.724 | 0.385 | 0.413 | 0.229 | 0.195 | 0.148 | 0.113 | 0.634 | 0.654 | 0.663 | 0.583 | 0.468 | 0.951 | 0.966 | 0.823 | 0.86 | 0.815
NCI-H1650 | – | – | – | – | – | 0.609 | 0.616 | 0.34 | 0.175 | 0.166 | 0.31 | 0.357 | 0.321 | 0.273 | 0.299 | – | – | – | – | –
NCI-H1648 | 0.662 | 0.62 | 0.538 | 0.696 | 0.539 | 0.535 | 0.398 | 0.382 | 0.253 | 0.274 | – | – | – | – | – | 0.568 | 0.756 | 0.73 | 0.718 | 0.522
IA-LM | – | – | – | – | – | 0.458 | 0.297 | 0.227 | 0.0664 | 0.0734 | – | – | – | – | – | – | – | – | – | –
NCI-H661 | – | – | – | – | – | 0.614 | 0.575 | 0.39 | 0.31 | 0.372 | 1.06 | 0.923 | 0.844 | 0.82 | 0.746 | – | – | – | – | –
Calu-6 | – | – | – | – | – | 0.369 | 0.268 | 0.167 | 0.0976 | 0.0925 | – | – | – | – | – | – | – | – | – | –
NCI-H1703 | 0.144 | 0.13 | 0.101 | – | 0.122 | 0.332 | 0.174 | 0.156 | 0.145 | 0.135 | – | – | – | – | – | 0.115 | 0.115 | 0.133 | 0.118 | 0.137
EBC-1 | – | – | – | – | – | 0.558 | 0.259 | 0.134 | 0.0918 | 0.115 | – | – | – | – | – | – | – | – | – | –
NCI-H2228 | – | – | – | – | – | 0.486 | 0.532 | 0.279 | 0.109 | 0.162 | 0.667 | 0.482 | 0.425 | 0.444 | 0.326 | – | – | – | – | –
SK-LU-1 | – | – | – | – | – | 0.493 | 0.433 | 0.256 | 0.157 | 0.172 | 0.198 | 0.205 | 0.166 | 0.179 | 0.165 | – | – | – | – | –
SW 1573 | – | – | – | – | – | 0.486 | 0.303 | 0.108 | 0.0465 | 0.07 | 0.58 | 0.495 | 0.474 | 0.507 | 0.329 | – | – | – | – | –
A549 | – | – | – | – | – | 0.349 | 0.28 | 0.0869 | 0.045 | 0.0539 | – | – | – | – | – | – | – | – | – | –
NCI-H520 | – | – | – | – | – | 0.273 | 0.217 | 0.24 | 0.151 | 0.167 | 0.216 | 0.239 | 0.185 | 0.263 | 0.193 | – | – | – | – | –
